In US20250304623A1, “PEPTIDES FOR INTRACELLULAR DELIVERY” (UNIVERSIDADE DE SANTIAGO DE COMPOSTELA, priority 2022, published 2025):
Starred links: 1 amine or outer side, 2 acyl side, 3 side chain; linkers in the order of their positions; H or OH if unused. Residues, ends and D or L forms follow the SMILES beside them. Groups on a side chain read outwards from the residue. *: point of attachment. Glutaryl = O=C(CCCC(=O)[*:2])[*:1]; NHNH2 = NN*

Experiments:
Assay type in all cases: cell-based
Hek293 cells [1] = assay: EGFP mRNA delivery, robotic library screening, Hek293
Experimental: (§1) Cells were seeded in a 96 well plate the day before the experiment at a concentration of 50,000 cell/mL (100 μL/w) in DMEM+10% FBS+1% Gln-Abt. For robotic library screening, the delivery of EGFP-mRNA (from TriLink, fully substituted with 5-methoxyuridine, capped and polyadenylated; TriLink, CleanCap® EGFP mRNA (5moU), ref. L-7201) in six different cell lines was performed. Amphiphilic molecule stock solutions were prepared in DMSO as described above and diluted in DMEM to afford a range of concentrations. The solutions of EGFP-mRNA/amphiphilic molecule complexes were freshly prepared prior to the transfection experiments. 35 μL of the corresponding amphiphile were added to 10 μL of a solution of EGFP-mRNA at 10 ng/μL in DMEM. The mixture was shaken for 30 min at room temperature before the addition to the cells. The cell medium was aspirated, and cells were washed with PBS twice. Cells were covered with 39 μL of DMEM and 11 μL of the complex's solution were added to the cells and incubated for 4 h (final concentration of peptide=2.5, 5 and 10 μM; final concentration of EGFP-mRNA=25 ng/well). After the incubation, the medium was replaced by 100 μL of fresh DMEM supplemented with 10% FBS. The total EGFP fluorescence was quantified after 72 h in a well plate reader. Amphiphile transfection efficiency was compared and normalized to Lipofectamine® MessengerMax efficiency (value of 1 in Tables 1-5 and 7; double underlined numbers). All experiments were done in triplicate.
(§2) Tables 1-7: RLuc (pDNA) or EGFP (mRNA) expression levels were normalized to Lipofectamine reagents (value=1) and expressed as fold-times signal increase. In the case of siRNA, the siRNA treated cells fluorescence was compared with siMOCK control fluorescence, while Cas9-RNP mediated knockout was measured against the fluorescence of untreated cells. In both siRNA and Cas9-RNP, values are expressed as % fluorescence reduction. Amphiphile concentration was 5 μM in all cases. All experiments were performed in triplicate.
(§3) Tables 14-19 show the mean (triplicates) fluorescence intensity measured after the transfection of EGFP mRNA by different amphiphiles at different concentrations in a variety of cell lines. Background fluorescence values, accounted by untreated control cells, were subtracted for processing.

Hela cells = assay: EGFP mRNA delivery, robotic library screening, HeLa
Experimental: as §1, §2, §3

[2] = tested on: HCT116 cells expressing EGFP; assay: Cas9-RNP delivery against EGFP (gene editing, plate reader), HCT116
Experimental: To generate an EGFP expressing HeLa cell line, HeLa cells were transfected with EGFP pDNA (pEGFP-C1, Clontech) and stable transfectants were selected with 400 μg/mL of G-418 (Millipore). Green clones were selected by epifluorescence microscopy and tested for EGFP expression stability through several passages. […] All other EGFP-expressing cell lines were obtained in a similar way from parent non-EGFP-expressing cell lines.
Cells expressing EGFP were seeded in a 96 well plate the day before the experiment at a concentration of 50,000 cell/mL (100 μL/w) in DMEM+10% FBS+1% Gln-Abt. For robotic library screening, the delivery of Cas9-RNP against EGFP (RNP designed to knock-out the gene encoding for the enhanced green fluorescent protein (EGFP)) was performed. For RNP assembly, 9.2 μL of crRNA and 9.2 μL of tracrRNA were mixed in 211.6 μL of Nuclease-Free Duplex Buffer (IDT), incubated for 5 min at 95° C. and slowly cooled at rt (see I. Lostalé-Seijo, et al. Peptide/Cas9 nanostructures for ribonucleoprotein cell membrane transport and gene edition, Chem. Sci., 2017). Cas9 protein was dissolved in DMEM at a final concentration of 4 μM and equal volumes of the RNA complex and Cas9 were mixed and incubated for 5 min at rt. 75 μL of the corresponding amphiphile concentrations were added to 5 μL of RNP at 2 μM. The mixture was shaken for 30 min at room temperature before the addition to the cells. The cell medium was aspirated, and cells were washed twice with PBS. Cells were covered with 30 μL of DMEM and 20 μL of the RNP/amphiphile complexes were added to the cells (final peptide concentrations=2.5, 5 and 10 μM; final Cas9-RNP concentration=50 nM) and incubated for 4 h. After the incubation, the medium was replaced by 100 μL of fresh DMEM supplemented with 10% FBS. The total EGFP fluorescence was quantified after 72 h in a plate reader (FIG. 2, Table 1 (right) and Table 6). All experiments were done in triplicate. […]
Tables 26-31 show the mean (triplicates) percentage of gene editing, accounted by GFP fluorescence intensity decrease (% of reduction), measured after the transfection of Cas9-RNP by different amphiphiles at different concentrations in a variety of cell lines. Background values, accounted by untreated control cells, were subtracted for processing.

Hek293 cells [3] = assay: RLuc pDNA delivery, robotic library screening, Hek293

CC(=O)N[C@@H](CCCNC(=N)N)C(=O)N[C@@H](CCCCNC(=O)CCCC(=O)NN)C(=O)N[C@@H](Cc1c[nH]cn1)C(=O)N[C@@H](CCCNC(=N)N)C(=O)N[C@@H](CCCCNC(=O)CCCC(=O)NN)C(=O)N[C@@H](CCCCNC(=O)CCCC(=O)NN)C(=O)N[C@@H](Cc1c[nH]cn1)C(N)=O [7.3(L-H), Ac-RK*HRK*K*H-NH2] (Ac-RK([Glutaryl-NHNH2])HRK([Glutaryl-NHNH2])K([Glutaryl-NHNH2])H-NH2)
mean fluorescence intensity (EGFP mRNA) (Hek293 cells [1]; Dodecanal, 2.5 μM): 1201 | mean fluorescence intensity (EGFP mRNA) (Hek293 cells [1]; Dodecanal, 5 μM): 588 | mean fluorescence intensity (EGFP mRNA) (Hek293 cells [1]; Dodecanal, 10 μM): 3588 | mean fluorescence intensity (EGFP mRNA) (Hek293 cells [1]; Myristoleyl, 2.5 μM): 21438 | mean fluorescence intensity (EGFP mRNA) (Hek293 cells [1]; Myristoleyl, 5 μM): 11945 | mean fluorescence intensity (EGFP mRNA) (Hek293 cells [1]; Myristoleyl, 10 μM): 1626 | mean fluorescence intensity (EGFP mRNA) (Hek293 cells [1]; Oleyl, 2.5 μM): 9690 | mean fluorescence intensity (EGFP mRNA) (Hek293 cells [1]; Oleyl, 5 μM): 17787 | mean fluorescence intensity (EGFP mRNA) (Hek293 cells [1]; Oleyl, 10 μM): 1626 | mean fluorescence intensity (EGFP mRNA) (Hek293 cells [1]; Palmitoleyl, 2.5 μM): 13282 | mean fluorescence intensity (EGFP mRNA) (Hek293 cells [1]; Palmitoleyl, 5 μM): 12872 | mean fluorescence intensity (EGFP mRNA) (Hek293 cells [1]; Palmitoleyl, 10 μM): 4716 | mean fluorescence intensity (EGFP mRNA) (Hek293 cells [1]; Petroselinyl, 2.5 μM): 29561 | mean fluorescence intensity (EGFP mRNA) (Hek293 cells [1]; Petroselinyl, 5 μM): 12351 | mean fluorescence intensity (EGFP mRNA) (Hek293 cells [1]; Petroselinyl, 10 μM): 6511 | mean fluorescence intensity (EGFP mRNA) (Hela cells; HeLa, Myristoleyl, 2.5 μM): 30978 | mean fluorescence intensity (EGFP mRNA) (Hela cells; HeLa, Oleyl, 2.5 μM): 13495 | mean fluorescence intensity (EGFP mRNA) (Hela cells; HeLa, Oleyl, 5 μM): 16633 | mean fluorescence intensity (EGFP mRNA) (Hela cells; HeLa, Palmitoleyl, 2.5 μM): 46778 | mean fluorescence intensity (EGFP mRNA) (Hela cells; HeLa, Petroselinyl, 2.5 μM): 15046 | mean fluorescence intensity (EGFP mRNA) (Hela cells; HeLa, Petroselinyl, 10 μM): 2234 | mRNA delivery relative to Lipofectamine MessengerMAX (Hela cells; HeLa, myristoleyl, palmitoleyl or petroselinyl aldehydes): between two and three times better | mean fluorescence intensity (EGFP mRNA) (Hela cells; Hela, Myristoleyl, 5 μM): 3346 | mean fluorescence intensity (EGFP mRNA) (Hela cells; Hela, Palmitoleyl, 5 μM): 21109 | mean fluorescence intensity (EGFP mRNA) (Hela cells; Hela, Palmitoleyl, 10 μM): 1577 | mean fluorescence intensity (EGFP mRNA) (Hela cells; Hela, Petroselinyl, 5 μM): 28395 | percentage of gene editing, GFP fluorescence intensity decrease (% of reduction) ([2]; Dodecanal, 15 μM): 3% | percentage of gene editing, GFP fluorescence intensity decrease (% of reduction) ([2]; Myristoleyl, 15 μM): 26% | percentage of gene editing, GFP fluorescence intensity decrease (% of reduction) ([2]; Oleyl, 5 μM): −5% | percentage of gene editing, GFP fluorescence intensity decrease (% of reduction) ([2]; Oleyl, 10 μM): 5% | percentage of gene editing, GFP fluorescence intensity decrease (% of reduction) ([2]; Palmitoleyl, 5 μM): 28% | percentage of gene editing, GFP fluorescence intensity decrease (% of reduction) ([2]; Palmitoleyl, 10 μM): 22% | mean luminescent intensity (RLuc pDNA) (Hek293 cells [3]; Myristoleyl, 5 μM): 330418 RLU | mean luminescent intensity (RLuc pDNA) (Hek293 cells [3]; Myristoleyl, 10 μM): 145597 RLU | mean luminescent intensity (RLuc pDNA) (Hek293 cells [3]; Myristoleyl, 15 μM): 36468 RLU | mean luminescent intensity (RLuc pDNA) (Hek293 cells [3]; Palmitoleyl, 5 μM): 294438 RLU | mean luminescent intensity (RLuc pDNA) (Hek293 cells [3]; Palmitoleyl, 10 μM): 191190 RLU | mean luminescent intensity (RLuc pDNA) (Hek293 cells [3]; Palmitoleyl, 15 μM): 87323 RLU | mean luminescent intensity (RLuc pDNA) (Hek293 cells [3]; Petroselinyl, 5 μM): 286371 RLU | mean luminescent intensity (RLuc pDNA) (Hek293 cells [3]; Petroselinyl, 10 μM): 237379 RLU | mean luminescent intensity (RLuc pDNA) (Hek293 cells [3]; Petroselinyl, 15 μM): 157061 RLU

Ac-RHLK*RHK*RRLK*RH-NH2 (Ac-RHLKRHKRRLKRH-NH2; not fully specified (residues 4, 7, 11); printed as Ac-RHLK*RHK*RRLK*RH-NH2; also: linker on K* not given here) [13(3His)]
mean fluorescence intensity (EGFP mRNA) (Hek293 cells [1]; Dodecanal, 5 μM): 1878 | mean fluorescence intensity (EGFP mRNA) (Hek293 cells [1]; Dodecanal, 10 μM): 1687 | mean fluorescence intensity (EGFP mRNA) (Hek293 cells [1]; Myristoleyl, 2.5 μM): 2039 | mean fluorescence intensity (EGFP mRNA) (Hek293 cells [1]; Myristoleyl, 5 μM): 1952 | mean fluorescence intensity (EGFP mRNA) (Hek293 cells [1]; Myristoleyl, 10 μM): 3636 | mean fluorescence intensity (EGFP mRNA) (Hek293 cells [1]; Oleyl, 2.5 μM): 2611 | mean fluorescence intensity (EGFP mRNA) (Hek293 cells [1]; Oleyl, 5 μM): 735 | mean fluorescence intensity (EGFP mRNA) (Hek293 cells [1]; Oleyl, 10 μM): 1303 | mean fluorescence intensity (EGFP mRNA) (Hek293 cells [1]; Petroselinyl, 2.5 μM): 3629 | mean fluorescence intensity (EGFP mRNA) (Hek293 cells [1]; Petroselinyl, 5 μM): 2394 | mean fluorescence intensity (EGFP mRNA) (Hek293 cells [1]; Petroselinyl, 10 μM): 2964 | mean fluorescence intensity (EGFP mRNA) (Hela cells; HeLa, Myristoleyl, 2.5 μM): 621 | mean fluorescence intensity (EGFP mRNA) (Hela cells; HeLa, Petroselinyl, 2.5 μM): 640 | mean fluorescence intensity (EGFP mRNA) (Hela cells; HeLa, Petroselinyl, 10 μM): 178 | mean fluorescence intensity (EGFP mRNA) (Hela cells; Hela, Petroselinyl, 5 μM): 208 | percentage of gene editing, GFP fluorescence intensity decrease (% of reduction) ([2]; Dodecanal, 5 μM): −33% | percentage of gene editing, GFP fluorescence intensity decrease (% of reduction) ([2]; Myristoleyl, 15 μM): 0% | percentage of gene editing, GFP fluorescence intensity decrease (% of reduction) ([2]; Palmitoleyl, 5 μM): −9% | percentage of gene editing, GFP fluorescence intensity decrease (% of reduction) ([2]; Palmitoleyl, 15 μM): 14% | percentage of gene editing, GFP fluorescence intensity decrease (% of reduction) ([2]; Petroselinyl, 5 μM): 26% | mean luminescent intensity (RLuc pDNA) (Hek293 cells [3]; Oleyl, 5 μM): 294438 RLU | mean luminescent intensity (RLuc pDNA) (Hek293 cells [3]; Oleyl, 10 μM): 191190 RLU | mean luminescent intensity (RLuc pDNA) (Hek293 cells [3]; Oleyl, 15 μM): 87323 RLU | mean luminescent intensity (RLuc pDNA) (Hek293 cells [3]; Palmitoleyl, 5 μM): 46216 RLU | mean luminescent intensity (RLuc pDNA) (Hek293 cells [3]; Palmitoleyl, 10 μM): 51837 RLU | mean luminescent intensity (RLuc pDNA) (Hek293 cells [3]; Palmitoleyl, 15 μM): 10351 RLU | mean luminescent intensity (RLuc pDNA) (Hek293 cells [3]; Petroselinyl, 5 μM): 330418 RLU | mean luminescent intensity (RLuc pDNA) (Hek293 cells [3]; Petroselinyl, 10 μM): 145597 RLU | mean luminescent intensity (RLuc pDNA) (Hek293 cells [3]; Petroselinyl, 15 μM): 36468 RLU
